Literature values, collected in patent US20250017946A1, “COMBINATION OF A BILE ACID AND A PHENYL BUTYRATE COMPOUND FOR THE TREATMENT OF NEURODEGENERATIVE DISEASES” (Amylyx Pharmaceuticals, Inc., priority 2021, published 2025).

System: patient populations
Settings: for less common or rare adverse events / most commonly reported adverse events: individual component, multiple patient populations

SMILES	less common or rare adverse events	most commonly reported adverse events	most common adverse reactions reported (≥1%) (use of TURSO)
C[C@H](CCC(=O)NCCS(=O)(=O)O)[C@H]1CC[C@H]2[C@@H]3[C@@H](O)C[C@@H]4C[C@H](O)CC[C@]4(C)[C@H]3CC[C@]12C [TURSO, tauroursodeoxycholic acid]	skin rash and vomiting	mild diarrhea, abdominal and pain	abdominal discomfort, abdominal pain, diarrhea, nausea, pruritus, and rash
O=C(O)CCCc1ccccc1 [PB, sodium phenylbutyrate]	nausea, vomiting, stomach upset, stomach pain, gastritis, headache, and skin rash	Menstrual irregularities, decreased appetite, sweat-like body odor, and bad taste	–
